{"source": "ChEMBL document CHEMBL3758108", "about": "“Synthesis and antiproliferative evaluation of novel 1,2,4-triazole derivatives incorporating benzisoselenazolone scaffold” (Bioorg Med Chem Lett, 2016)", "key": {"[1]": {"test": "Antiproliferative activity against human SMMC7721 cells after 48 hrs by CCK8 assay", "type": "functional, cell-based", "conditions": "SMMC-7721, 48 h"}, "[2]": {"test_system": "HeLa", "test": "Antiproliferative activity against human HeLa cells after 48 hrs by CCK8 assay", "type": "functional, cell-based"}, "[3]": {"test_system": "A549", "test": "Antiproliferative activity against human A549 cells after 48 hrs by CCK8 assay", "type": "functional, cell-based", "conditions": "A549, 48 h"}, "[4]": {"test_system": "L929", "test": "Antiproliferative activity against mouse L929 cells after 48 hrs by CCK8 assay", "type": "cell-based", "conditions": "L929, 48 h"}}, "data": [{"smiles": "CCCCCCSc1n[nH]c(-n2[se]c3ccccc3c2=O)n1", "values": [{"measurement": "IC50", "setting": "[1]", "result": 22.4, "unit": "µM"}, {"measurement": "IC50", "setting": "[2]", "result": 35.9, "unit": "µM"}, {"measurement": "IC50", "setting": "[3]", "result": 20.3, "unit": "µM"}, {"measurement": "IC50", "setting": "[4]", "result": 39.3, "unit": "µM"}]}, {"smiles": "CC(C)Sc1n[nH]c(-n2[se]c3ccccc3c2=O)n1", "values": [{"measurement": "IC50", "setting": "[1]", "result": 6.01, "unit": "µM"}, {"measurement": "IC50", "setting": "[2]", "result": 34.6, "unit": "µM"}, {"measurement": "IC50", "setting": "[3]", "result": 36.6, "unit": "µM"}, {"measurement": "IC50", "setting": "[4]", "result": 37.1, "unit": "µM"}]}, {"smiles": "Cc1ccccc1CSc1n[nH]c(-n2[se]c3ccccc3c2=O)n1", "values": [{"measurement": "IC50", "setting": "[1]", "result": 36.2, "unit": "µM"}, {"measurement": "IC50", "setting": "[2]", "result": 6.13, "unit": "µM"}, {"measurement": "IC50", "setting": "[3]", "result": 9.72, "unit": "µM"}, {"measurement": "IC50", "setting": "[4]", "result": 15.6, "unit": "µM"}]}, {"smiles": "O=c1c2ccccc2[se]n1-c1nc(SCc2ccc(Cl)cc2)n[nH]1", "values": [{"measurement": "IC50", "setting": "[1]", "result": 33.9, "unit": "µM"}, {"measurement": "IC50", "setting": "[2]", "result": 40.9, "unit": "µM"}, {"measurement": "IC50", "setting": "[3]", "result": 42.1, "unit": "µM"}, {"measurement": "IC50", "setting": "[4]", "result": 39.5, "unit": "µM"}]}, {"smiles": "CCCCSc1n[nH]c(-n2[se]c3ccccc3c2=O)n1", "values": [{"measurement": "IC50", "setting": "[1]", "result": 16.8, "unit": "µM"}, {"measurement": "IC50", "setting": "[2]", "result": 32.9, "unit": "µM"}, {"measurement": "IC50", "setting": "[3]", "result": 12.5, "unit": "µM"}, {"measurement": "IC50", "setting": "[4]", "result": 30.4, "unit": "µM"}]}, {"smiles": "CCSc1n[nH]c(-n2[se]c3ccccc3c2=O)n1", "values": [{"measurement": "IC50", "setting": "[1]", "result": 10, "unit": "µM"}, {"measurement": "IC50", "setting": "[2]", "result": 14.1, "unit": "µM"}, {"measurement": "IC50", "setting": "[3]", "result": 39.6, "unit": "µM"}, {"measurement": "IC50", "setting": "[4]", "result": 35.2, "unit": "µM"}]}, {"smiles": "O=c1c2ccccc2[se]n1-c1nc(SCc2ccccc2)n[nH]1", "values": [{"measurement": "IC50", "setting": "[1]", "result": 32, "unit": "µM"}, {"measurement": "IC50", "setting": "[2]", "result": "> 50", "unit": "µM"}, {"measurement": "IC50", "setting": "[3]", "result": "> 50", "unit": "µM"}, {"measurement": "IC50", "setting": "[4]", "result": "> 50", "unit": "µM"}]}, {"smiles": "CCCCCSc1n[nH]c(-n2[se]c3ccccc3c2=O)n1", "values": [{"measurement": "IC50", "setting": "[1]", "result": 31.4, "unit": "µM"}, {"measurement": "IC50", "setting": "[2]", "result": 30.3, "unit": "µM"}, {"measurement": "IC50", "setting": "[3]", "result": 21.1, "unit": "µM"}, {"measurement": "IC50", "setting": "[4]", "result": 33.5, "unit": "µM"}]}, {"smiles": "CCCSc1n[nH]c(-n2[se]c3ccccc3c2=O)n1", "values": [{"measurement": "IC50", "setting": "[1]", "result": 6.02, "unit": "µM"}, {"measurement": "IC50", "setting": "[2]", "result": 30.4, "unit": "µM"}, {"measurement": "IC50", "setting": "[3]", "result": 45.5, "unit": "µM"}, {"measurement": "IC50", "setting": "[4]", "result": 31.8, "unit": "µM"}]}, {"smiles": "Cc1ccc(CSc2n[nH]c(-n3[se]c4ccccc4c3=O)n2)cc1", "values": [{"measurement": "IC50", "setting": "[1]", "result": "> 50", "unit": "µM"}, {"measurement": "IC50", "setting": "[2]", "result": 34.8, "unit": "µM"}, {"measurement": "IC50", "setting": "[3]", "result": "> 50", "unit": "µM"}, {"measurement": "IC50", "setting": "[4]", "result": "> 50", "unit": "µM"}]}, {"smiles": "Cc1cccc(CSc2n[nH]c(-n3[se]c4ccccc4c3=O)n2)c1", "values": [{"measurement": "IC50", "setting": "[1]", "result": 9.04, "unit": "µM"}, {"measurement": "IC50", "setting": "[2]", "result": 42.6, "unit": "µM"}, {"measurement": "IC50", "setting": "[3]", "result": 12.4, "unit": "µM"}, {"measurement": "IC50", "setting": "[4]", "result": "> 50", "unit": "µM"}]}, {"smiles": "O=c1c2ccccc2[se]n1-c1nc(SCc2ccc(F)cc2)n[nH]1", "values": [{"measurement": "IC50", "setting": "[1]", "result": 46.1, "unit": "µM"}, {"measurement": "IC50", "setting": "[2]", "result": "> 50", "unit": "µM"}, {"measurement": "IC50", "setting": "[3]", "result": 36.4, "unit": "µM"}, {"measurement": "IC50", "setting": "[4]", "result": "> 50", "unit": "µM"}]}, {"smiles": "CC(C)CSc1n[nH]c(-n2[se]c3ccccc3c2=O)n1", "values": [{"measurement": "IC50", "setting": "[1]", "result": 35, "unit": "µM"}, {"measurement": "IC50", "setting": "[2]", "result": 34.9, "unit": "µM"}, {"measurement": "IC50", "setting": "[3]", "result": 37.8, "unit": "µM"}, {"measurement": "IC50", "setting": "[4]", "result": 33.4, "unit": "µM"}]}, {"smiles": "O=c1c2ccccc2[se]n1-c1nc(SCc2ccc([N+](=O)[O-])cc2)n[nH]1", "values": [{"measurement": "IC50", "setting": "[1]", "result": 8.91, "unit": "µM"}, {"measurement": "IC50", "setting": "[2]", "result": 3.94, "unit": "µM"}, {"measurement": "IC50", "setting": "[3]", "result": 9.14, "unit": "µM"}, {"measurement": "IC50", "setting": "[4]", "result": 7.43, "unit": "µM"}]}, {"smiles": "O=c1c2ccccc2[se]n1CCn1[se]c2ccccc2c1=O", "note": "[ETHASELEN]", "values": [{"measurement": "IC50", "setting": "[1]", "result": 10.7, "unit": "µM"}, {"measurement": "IC50", "setting": "[2]", "result": 15.9, "unit": "µM"}, {"measurement": "IC50", "setting": "[3]", "result": 3.26, "unit": "µM"}, {"measurement": "IC50", "setting": "[4]", "result": "> 50", "unit": "µM"}]}, {"smiles": "O=c1[nH]cc(F)c(=O)[nH]1", "note": "[FLUOROURACIL]", "values": [{"measurement": "IC50", "setting": "[2]", "result": 17.2, "unit": "µM"}, {"measurement": "IC50", "setting": "[4]", "result": 2.98, "unit": "µM"}]}]}
